The results in this text go back to ChEMBL document CHEMBL5579817, “Recent advances in targeting histone H3 lysine 36 methyltransferases for cancer therapy” (Eur J Med Chem, 2024).

Each structure is given as a SMILES string.

The nature of data set [1]: Antiproliferative activity against […] assessed as reduction in cell growth incubated for 48 hrs by MTT assay. Format: functional, cell-based. Conditions: RN 22, 48 h.
The next data set concerns MOLM-13. In words: Growth inhibition of human MOLM-13 cells. Type of data set: functional.
In a further data set the test system is MV4-11. In words: Growth inhibition of human MV4-11 cells after 7 days by WST-8 assay. Type of data set: functional. Conditions: MV4-11, 168 h, time 7 day.
The subject of another data set is KOPN-8. In words: Growth inhibition of human KOPN-8 cells. Type of data set: functional.
Data set [2] addresses T1, Histone-lysine N-methyltransferase NSD2 (Homo sapiens, UniProt O96028).
T1 sequence (O96028 whole entry): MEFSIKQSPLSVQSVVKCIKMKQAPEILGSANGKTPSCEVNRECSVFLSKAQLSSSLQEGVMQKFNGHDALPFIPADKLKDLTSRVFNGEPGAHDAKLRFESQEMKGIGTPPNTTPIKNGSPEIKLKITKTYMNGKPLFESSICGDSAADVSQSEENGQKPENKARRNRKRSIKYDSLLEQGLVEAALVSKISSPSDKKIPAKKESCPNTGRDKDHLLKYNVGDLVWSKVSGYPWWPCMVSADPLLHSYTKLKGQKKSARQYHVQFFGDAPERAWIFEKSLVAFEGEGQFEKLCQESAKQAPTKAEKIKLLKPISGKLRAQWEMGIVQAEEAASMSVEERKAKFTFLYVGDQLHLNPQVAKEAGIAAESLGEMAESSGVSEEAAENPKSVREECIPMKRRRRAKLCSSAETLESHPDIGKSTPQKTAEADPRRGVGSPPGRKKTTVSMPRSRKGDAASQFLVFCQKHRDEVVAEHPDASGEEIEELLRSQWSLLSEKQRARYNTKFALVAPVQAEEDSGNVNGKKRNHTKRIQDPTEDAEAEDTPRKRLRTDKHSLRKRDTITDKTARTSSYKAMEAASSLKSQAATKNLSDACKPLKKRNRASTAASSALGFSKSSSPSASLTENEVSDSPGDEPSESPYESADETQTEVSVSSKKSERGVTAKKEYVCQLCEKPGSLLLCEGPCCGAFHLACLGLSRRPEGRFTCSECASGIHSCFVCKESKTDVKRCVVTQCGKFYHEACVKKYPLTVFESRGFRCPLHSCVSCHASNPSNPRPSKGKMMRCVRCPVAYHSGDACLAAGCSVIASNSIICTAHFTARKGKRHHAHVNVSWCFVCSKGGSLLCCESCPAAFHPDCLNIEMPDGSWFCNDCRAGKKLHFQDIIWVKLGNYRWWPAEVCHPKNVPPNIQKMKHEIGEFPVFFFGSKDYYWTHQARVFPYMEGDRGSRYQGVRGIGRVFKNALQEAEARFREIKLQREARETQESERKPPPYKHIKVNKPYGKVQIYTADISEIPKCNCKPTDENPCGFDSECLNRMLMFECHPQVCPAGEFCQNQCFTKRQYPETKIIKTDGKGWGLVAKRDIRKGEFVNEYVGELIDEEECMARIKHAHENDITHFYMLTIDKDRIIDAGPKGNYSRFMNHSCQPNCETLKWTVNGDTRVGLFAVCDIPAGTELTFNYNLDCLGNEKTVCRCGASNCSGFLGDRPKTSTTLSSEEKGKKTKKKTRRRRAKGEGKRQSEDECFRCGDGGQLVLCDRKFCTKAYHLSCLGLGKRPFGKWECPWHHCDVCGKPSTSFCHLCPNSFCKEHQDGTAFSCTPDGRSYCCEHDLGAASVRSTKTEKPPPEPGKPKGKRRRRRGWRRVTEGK
As to the kind of experiment: Inhibition of MMSET (953 to 1240 residues) (unknown origin) by Alpha Screen assay.

Data set [3] has as its target von Hippel-Lindau disease tumor suppressor/Histone-lysine N-methyltransferase NSD3 (Homo sapiens, UniProt Q9BZ95+P40337). As to the kind of experiment: PROTAC activity at VHL/NSD3 […] domain in human MOLM-13 cells assessed as […] measured after 48 hrs by immunoblotting analysis. Format: cell-based.
In a further data set the test system is EOL1. As to the kind of experiment: Antiproliferative activity against human EOL1 cells assessed as cell growth inhibition. Type of data set: functional, cell-based.
In data set [4] the target is T1, Histone-lysine N-methyltransferase NSD2. In words: Binding affinity to NSD2 (unknown origin) assessed as dissociation constant by SPR analysis.
Data set [5] deals with Protein cereblon/Histone-lysine N-methyltransferase NSD2 (Homo sapiens, UniProt O96028+Q96SW2). As to the kind of experiment: PROTAC activity at CRBN/NSD2 in human VCaP cells assessed as induction of NSD2 degradation at 2 uM incubated for 24 hrs by immunoblot analysis. Format: cell-based.
Chain of Protein cereblon/Histone-lysine N-methyltransferase NSD2 (Q96SW2 whole entry, one chain of several): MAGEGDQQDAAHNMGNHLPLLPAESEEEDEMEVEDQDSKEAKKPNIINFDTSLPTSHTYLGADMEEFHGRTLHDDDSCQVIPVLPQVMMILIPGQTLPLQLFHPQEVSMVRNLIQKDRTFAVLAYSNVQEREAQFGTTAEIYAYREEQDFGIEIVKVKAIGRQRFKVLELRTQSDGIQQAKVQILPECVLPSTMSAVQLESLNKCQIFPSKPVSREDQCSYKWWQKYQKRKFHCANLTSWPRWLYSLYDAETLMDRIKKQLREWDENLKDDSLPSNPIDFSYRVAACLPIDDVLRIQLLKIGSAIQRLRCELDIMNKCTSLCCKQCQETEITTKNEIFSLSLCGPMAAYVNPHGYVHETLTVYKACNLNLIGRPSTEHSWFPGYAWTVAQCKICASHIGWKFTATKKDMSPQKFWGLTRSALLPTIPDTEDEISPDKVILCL
A short description of data set [6]: Oral bioavailability in CD-1 mouse by LC-MS/MS analysis. Format: ADME, organism-based. Conditions: in vivo.
Data set [7] is described as follows: Oral bioavailability in Sprague-Dawley rat by LC-MS/MS analysis. Format: ADME, organism-based. The settings on record: in vivo.
Data set [8] has as its target T1, Histone-lysine N-methyltransferase NSD2. In words: Inhibition of NSD2 SET domain (unknown origin) extracted from Escherichia coli BL21.

Chain of von Hippel-Lindau disease tumor suppressor/Histone-lysine N-methyltransferase NSD3 (Q9BZ95 whole entry): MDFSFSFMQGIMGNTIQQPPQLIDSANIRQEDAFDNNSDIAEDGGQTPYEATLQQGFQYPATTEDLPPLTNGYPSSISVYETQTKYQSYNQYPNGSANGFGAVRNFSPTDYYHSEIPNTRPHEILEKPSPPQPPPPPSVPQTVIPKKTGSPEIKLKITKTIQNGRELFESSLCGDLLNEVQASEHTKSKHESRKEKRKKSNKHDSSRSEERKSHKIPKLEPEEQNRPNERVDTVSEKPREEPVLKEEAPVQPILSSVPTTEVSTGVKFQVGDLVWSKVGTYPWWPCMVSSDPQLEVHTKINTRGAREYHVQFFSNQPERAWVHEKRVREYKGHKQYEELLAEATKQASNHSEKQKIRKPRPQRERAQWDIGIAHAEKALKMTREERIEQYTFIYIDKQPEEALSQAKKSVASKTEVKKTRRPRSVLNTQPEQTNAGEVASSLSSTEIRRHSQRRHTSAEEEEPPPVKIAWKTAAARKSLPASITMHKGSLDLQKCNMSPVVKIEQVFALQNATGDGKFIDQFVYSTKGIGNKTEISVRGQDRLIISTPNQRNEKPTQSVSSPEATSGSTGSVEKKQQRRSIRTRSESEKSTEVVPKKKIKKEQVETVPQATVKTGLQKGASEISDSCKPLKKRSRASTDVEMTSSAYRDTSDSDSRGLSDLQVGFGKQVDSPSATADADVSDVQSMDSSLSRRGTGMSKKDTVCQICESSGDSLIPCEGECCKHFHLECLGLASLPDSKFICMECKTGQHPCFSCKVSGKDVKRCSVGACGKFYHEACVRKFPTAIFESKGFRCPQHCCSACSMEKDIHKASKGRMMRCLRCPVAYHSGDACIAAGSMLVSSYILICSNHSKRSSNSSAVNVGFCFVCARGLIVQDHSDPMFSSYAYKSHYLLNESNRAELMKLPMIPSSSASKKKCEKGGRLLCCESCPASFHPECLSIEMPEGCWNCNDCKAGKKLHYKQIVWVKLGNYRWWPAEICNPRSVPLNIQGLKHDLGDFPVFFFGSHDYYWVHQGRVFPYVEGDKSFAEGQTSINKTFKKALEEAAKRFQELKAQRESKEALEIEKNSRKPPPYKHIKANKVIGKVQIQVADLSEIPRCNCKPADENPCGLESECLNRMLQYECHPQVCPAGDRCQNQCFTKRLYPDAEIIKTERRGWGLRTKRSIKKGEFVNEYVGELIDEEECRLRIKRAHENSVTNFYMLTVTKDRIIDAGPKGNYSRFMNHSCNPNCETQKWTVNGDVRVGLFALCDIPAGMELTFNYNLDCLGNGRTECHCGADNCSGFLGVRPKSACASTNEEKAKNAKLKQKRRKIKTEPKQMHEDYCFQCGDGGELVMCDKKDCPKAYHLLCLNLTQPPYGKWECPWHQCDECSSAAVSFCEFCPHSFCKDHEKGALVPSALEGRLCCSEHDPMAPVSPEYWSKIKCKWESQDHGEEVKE
Chain of von Hippel-Lindau disease tumor suppressor/Histone-lysine N-methyltransferase NSD3 (P40337 whole entry): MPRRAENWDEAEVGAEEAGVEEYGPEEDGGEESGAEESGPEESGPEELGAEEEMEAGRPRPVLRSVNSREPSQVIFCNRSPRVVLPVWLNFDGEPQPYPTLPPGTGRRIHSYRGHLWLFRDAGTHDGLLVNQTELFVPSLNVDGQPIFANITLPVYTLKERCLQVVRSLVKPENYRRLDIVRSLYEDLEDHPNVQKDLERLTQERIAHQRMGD

As for `Cc1cc(CN)cc(C)c1-c1ncn(C)c1-c1ccnc2cc(F)ccc12`, the concentration for half-maximal inhibition (IC50) in data set [1] was determined as 13000 nM.

`NC(=S)c1cccc(-c2cn(C3CCN(S(=O)(=O)C(F)(F)F)CC3)c3cc(CNC(=O)C4CNC4)ccc23)c1`: the GI50 in the data set with MOLM-13, with MV4-11 and in the data set with KOPN-8 was 5000 nM each time.

With `Cc1cccc2cc(C(=O)NC3CCC(N)CC3)[nH]c12` (centres undefined), half-maximal inhibition in data set [2] (IC50) was put at 166000 nM.

`CN1CC(C(=O)NCc2ccc3c(-c4cccc(C(N)=S)c4)cn(C4CCN(S(=O)(=O)C(F)(F)F)CC4)c3c2)C1`: the GI50 with MOLM-13, in the data set on MV4-11 and in the data set on KOPN-8 was 1800 nM each time.

Consider `CC(=O)N(C)C1CCN(c2cc(F)cc(NC(=O)c3cc4c(F)ccc(C)c4[nH]3)c2)C1` (centres undefined), for which, in [2], the IC50 stood at 7 nM.

For the molecule `Cc1cc(CNCCCC(=O)NCCCCCCCCC(=O)N[C@H](C(=O)N2C[C@H](O)C[C@H]2C(=O)N[C@@H](C)c2ccc(-c3scnc3C)cc2)C(C)(C)C)cc(C)c1-c1ncn(C)c1-c1ccnc2cc(F)ccc12`, the 50% degradation concentration (DC50) in [3] came out at 4900 nM. Moreover, in the data set with EOL1, the IC50 was determined as 2300 nM.

In the case of `NCCCCCCNC(=O)c1ccc(NC(=O)c2ccc(CN(C(=O)c3ccc4c(c3)OCC(=O)N4)C3CC3)cc2)cc1`, the equilibrium dissociation constant (Kd) in [4] is 24 nM. In addition, in data set [5], the DC50 was 350 nM.

For `Cc1cccnc1C(NC(=O)c1cc2cccc(C)c2[nH]1)C1CC1` (centres undefined), the IC50 in data set [2] came to 3080 nM.

`Cc1cccc2cc(C(=O)NC3CCC(NC(=O)CCN)CC3)[nH]c12` (centres undefined) came in with a half-maximal inhibitory concentration (IC50) in [2] of […].

In turn, `Cc1cccnc1C(NC(=O)c1cc2c(F)ccc(C)c2[nH]1)C1CC1` (centres undefined) had an IC50 in data set [2] of 600 nM.

Regarding `O=C(CNc1cccc2c1C(=O)N(C1CCC(=O)NC1=O)C2=O)NCCCOc1ccc(NC(=O)c2ccc(CN(C(=O)c3ccc4c(c3)OCC(=O)N4)C3CC3)cc2)nc1` (centres undefined), the DC50 in [5] was 5200 nM.

Molecule `Cc1ccc(F)c2cc(C(=O)Nc3cccc(N4CCC(N(C)C)CC4)c3)[nH]c12` displayed a half-maximal inhibitory concentration (IC50) in data set [2] of 10 nM.

Turning to `CC(=O)N1CCN([C@H]2CCC[C@@H](NC(=O)c3cc4c(F)ccc(C)c4[nH]3)C2)CC1` [EZM-0414], in [2], it took 18 nM to reach half-maximal inhibition (IC50). Besides, the results for the bioavailability in data set [6] and in [7] were more than 100% and 97%, respectively.

In turn, `Cc1cccc2cc(C(=O)Nc3ccccc3)[nH]c12` came in with an IC50 in [2] of 4240 nM.

Turning to `O=C1O[C@@H](C(=O)N2CCN(Cc3nc4sc5c(c4c(=O)[nH]3)CCCC5)CC2)Cc2ccccc21`, in data set [8], half-maximal inhibition (IC50) was put at 132 nM.

As to `CCC(C)N[C@@H](CC[C@H](N)C(=O)O)C[C@H]1O[C@@H](n2cnc3c(N)ncnc32)[C@H](O)[C@@H]1O` (some centres undefined), 1800 nM corresponded to half-maximal inhibition in [2] (IC50).
